Among the test systems are Escherichia coli 078; Escherichia coli UB1005; Streptococcus agalactiae; Escherichia coli AB94012; Bacillus subtilis 168; Escherichia coli ML-35p.
What all share (assay): ≥ marks a high value that may be exact or a test limit, other limits are often not marked, values filed in µg/mL are converted to µM
The subject of test [1] is Escherichia coli ATCC 25922.
Test [2] has as its system Lacticaseibacillus rhamnosus 7469.
Test [3] deals with Pseudomonas aeruginosa ATCC 27853.
In test [4] the test system is Salmonella enterica subsp. enterica serovar Pullorum ATCC 7913.
In test [5] the test system is Salmonella enterica subsp. enterica serovar Typhimurium ATCC 14028.
In test [6] the test system is Salmonella enterica subsp. enterica serovar Typhimurium C77-31.
The subject of test [7] is Staphylococcus aureus ATCC 25923.
The subject of test [8] is Staphylococcus aureus ATCC 29213.
Test [9] relates to Staphylococcus epidermidis ATCC 12228.
Test [10] deals with Streptococcus agalactiae CICC 10465.
In test [11] the test system is Streptococcus thermophilus YM-C.
Test [12] has as its system Pseudomonas aeruginosa ATCC 9027.
In test [13] the test system is Staphylococcus aureus AB6538.
Test [14] has as its system Acinetobacter baumannii ATCC 19606.
Test [15] concerns Bacillus anthracis Sterne 34F2.
The test system of test [16] is Escherichia coli DH5alpha.
Test [17] has as its system Haemophilus influenzae ATCC 49247.
The subject of test [18] is Klebsiella pneumoniae NCTC 9633.
The test system of test [19] is Mycobacterium tuberculosis H37Ra.
For test [20], the system named is Pseudomonas aeruginosa PAO1.
Test [21] relates to Staphylococcus aureus NRS 72.
Test [22] deals with Staphylococcus aureus USA 300.
Test [23] concerns Bacillus subtilis KACC 10196.
The subject of test [24] is Candida albicans KACC 30071.
For test [25], the system named is Enterococcus faecalis KACC 11304.
Test [26] relates to Escherichia coli KACC 1039.
The subject of test [27] is Klebsiella pneumoniae KCTC 2242.
The subject of test [28] is Pseudomonas aeruginosa KACC 10259.
Test [29] concerns Staphylococcus aureus KACC 10196.
Test [30] relates to Acinetobacter baumannii 7226/16.
The test system of test [31] is Escherichia coli ESBL 521/17.
For test [32], the system named is Klebsiella pneumoniae ESBL 344/17.
In test [33] the test system is Pseudomonas aeruginosa 522/17.
For test [34], the system named is Staphylococcus aureus 1399/17.
Test [35] deals with Staphylococcus aureus ATCC 33591.
Test [36] deals with Staphylococcus aureus SG511.

In brackets after ≈: the same amount, converted by molar mass. Bounds are passed on as bounds.

In the case of `CC[C@H](C)[C@H](NC(=O)CNC(=O)[C@@H](NC(=O)[C@@H](N)CC(C)C)[C@@H](C)CC)C(=O)N[C@H](C(=O)N[C@@H](CC(=O)O)C(=O)NCC(=O)N[C@H](C(=O)N[C@@H](CCCCN)C(=O)N[C@@H](CCC(=O)O)C(=O)N[C@@H](CCCN=C(N)N)C(=O)N[C@@H](CCCCN)C(=O)N[C@@H](CCCCN)C(=O)N[C@@H](CCCN=C(N)N)C(=O)N[C@@H](CCCN=C(N)N)C(=O)N[C@@H](CCCN=C(N)N)C(N)=O)C(C)C)[C@@H](C)CC` [LIGIIDGVKERKKRRR], the MIC is at least 64 µM against Escherichia coli 078; over 64 µM in [1]; at least 64 µM against Escherichia coli UB1005; at least 64 µM in test [2]; over 64 µM in test [3]; at least 64 µM in test [4]. For the same compound, the MIC in [5] is over 64 µM; in test [6], at least 64 µM; in [7] it was over 64 µM; in [8] it was over 64 µM; in [9] it was over 64 µM; in [10] it was at least 64 µM. For the same compound, the MIC (in the test on Streptococcus agalactiae; in test [11]) was at least 64 µM in each case.
Take `CC[C@H](C)[C@H](NC(=O)[C@H](CCCCN)NC(=O)[C@@H]1CCCN1C(=O)[C@H](CC(C)C)NC(=O)[C@@H](NC(=O)[C@H](CCCCN)NC(=O)[C@H](CCCCN)NC(=O)[C@H](CC(C)C)NC(=O)[C@@H](NC(=O)[C@H](CCCCN)NC(=O)[C@H](CCCCN)NC(=O)[C@H](CC(C)C)NC(=O)[C@H](CC(C)C)NC(=O)[C@H](CCCCN)NC(=O)[C@H](CC(C)C)NC(=O)[C@@H](N)Cc1ccccc1)C(C)C)C(C)C)C(=O)N[C@@H](Cc1ccccc1)C(=O)N[C@@H](CCCCN)C(N)=O` [FLKLLKKVLKKVLPKIFK]: the MIC in the test on Escherichia coli AB94012 was 2.86 µM (≈ 6.25 µg/mL); in [1], 2.86 µM (≈ 6.25 µg/mL); in test [3], 5.72 µM (≈ 12.5 µg/mL); in test [12], 5.72 µM (≈ 12.5 µg/mL); in [13] it was 2.86 µM (≈ 6.25 µg/mL).
In the case of `CC(C)[C@H](NC(=O)[C@H](Cc1c[nH]c2ccccc12)NC(=O)[C@H](Cc1cnc[nH]1)NC(=O)[C@H](CCCN=C(N)N)NC(=O)[C@H](CCCN=C(N)N)NC(=O)[C@H](Cc1c[nH]c2ccccc12)NC(=O)[C@H](Cc1c[nH]c2ccccc12)NC(=O)[C@H](Cc1cnc[nH]1)NC(=O)[C@H](Cc1c[nH]c2ccccc12)NC(=O)[C@H](CCCN=C(N)N)NC(=O)[C@@H](N)CCCCN)C(=O)N[C@H](C(=O)N[C@@H](Cc1c[nH]c2ccccc12)C(N)=O)C(C)C` [KRWHWWRRHWVVW], the MIC in test [14] was 50 µM (≈ 101 µg/mL); in test [15], at least 80 µM; with Bacillus subtilis 168 it was 0.2 µM (≈ 0.403 µg/mL); in test [16], 25 µM (≈ 50.4 µg/mL); in test [17] it was at least 80 µM; in test [18], at least 80 µM. Moreover, the MIC in [19] was 2.5 µM (≈ 5.04 µg/mL); in test [20], 50 µM (≈ 101 µg/mL); in test [21], at least 80 µM; in [22], at least 80 µM.
Take `CC[C@H](C)[C@H](NC(=O)[C@H](CO)NC(=O)[C@@H](NC(=O)[C@H](CCCCN)NC(=O)[C@H](Cc1ccccc1)NC(=O)[C@@H]1CCCN1C(=O)[C@H](CCCCN)NC(=O)[C@H](CCCCN)NC(=O)[C@H](Cc1ccccc1)NC(=O)[C@@H](NC(=O)[C@H](CCCCN)NC(=O)[C@H](Cc1c[nH]c2ccccc12)NC(=O)[C@@H](N)CCCN=C(N)N)[C@@H](C)CC)[C@@H](C)CC)C(=O)N[C@@H](Cc1cnc[nH]1)C(=O)N[C@@H](CC(C)C)C(N)=O` [RWKIFKKPFKISIHL]: the MIC in test [23] is 1 µM (≈ 1.94 µg/mL); in test [24] it was 4 µM (≈ 7.76 µg/mL); in test [25], 4 µM (≈ 7.76 µg/mL); in test [26], 1 µM (≈ 1.94 µg/mL); in [27], 1 µM (≈ 1.94 µg/mL); in test [28], 1 µM (≈ 1.94 µg/mL). Moreover, the MIC in [29] is 4 µM (≈ 7.76 µg/mL).
`CC[C@H](C)[C@H](NC(=O)[C@@H]1CCCN1C(=O)[C@@H]1CCCN1C(=O)[C@H](CCCN=C(N)N)NC(=O)[C@H](CCCN=C(N)N)NC(=O)[C@H](Cc1ccccc1)NC(=O)[C@@H]1CCCN1C(=O)[C@H](CC(C)C)NC(=O)[C@H](CCCN=C(N)N)NC(=O)[C@H](Cc1ccccc1)NC(=O)[C@@H](N)CCCN=C(N)N)C(=O)N[C@@H](CCCN=C(N)N)C(=O)N[C@H](C(=O)N1CCC[C@H]1C(=O)N1CCC[C@H]1C(=O)N1CCC[C@H]1C(=O)N[C@@H](Cc1ccccc1)C(=O)N[C@@H](Cc1ccc(O)cc1)C(=O)N1CCC[C@H]1C(=O)N1CCC[C@H]1C(=O)N[C@@H](Cc1ccccc1)C(=O)N[C@@H](CCCN=C(N)N)C(=O)N[C@@H](CCCN=C(N)N)C(=O)N[C@@H](Cc1ccccc1)C(=O)N[C@@H](CC(C)C)C(N)=O)[C@@H](C)CC` [RFRLPFRRPPIRIPPPFYPPFRRFL]: the MIC is 8 µM (≈ 25.9 µg/mL) in [30]; 2 µM (≈ 6.48 µg/mL) in test [31]; 4 µM (≈ 13 µg/mL) against Escherichia coli ML-35p; 2 µM (≈ 6.48 µg/mL) in [32]; 11.3 µM (≈ 36.6 µg/mL) in test [33]; 4 µM (≈ 13 µg/mL) in test [34]. Further, the MIC worked out at 16 µM (≈ 51.8 µg/mL) in test [35] and 0.5 µM (≈ 1.62 µg/mL) in test [36].

The values are drawn from DBAASP.
